Assay results reported in US20260034094A1, “COMPOSITIONS AND METHODS FOR INDUCING FERROPTOSIS” (Kojin Therapeutics, Inc., priority 2022, published 2026).

Tests used:
human recombinant GCL = human recombinant GCL (Homo sapiens (Human), UniProt P48506); test: GCL enzyme profiling assay (ADP-Glo luminescence); type: biochemical; settings: human recombinant GCL, ADP-Glo; read-out: GCL IC50
Summary of the method: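 IC50 fitted by four-parameter logistic to luminescent ADP formation (ADP-Glo). Reaction at room temperature in HEPES pH 7.5 with 30 mM MgCl2, 0.2% F-127, 1% DMSO; 5 nM GCL and 0.6 mM ATP preincubated 1 h before adding 1 mM glutamate plus 1.2 mM α-aminobutyrate for 2 h.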

RKN cells = test: RKN cell profiling assay (cell viability, CellTiter-Glo); type: cell-based; settings: cell viability, read-out: Cell Killing EC50
Summary of the method: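 Viability read by CellTiter-Glo luminescence after 96 h compound exposure (0.5% DMSO final) of cells plated at 1,000/well in 10% FBS F-12 and allowed 24 h attachment. Four-parameter fits gave EC50; rescue arms used ferrostatin-1, 1.5 μM, present from seeding.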

human recombinant GCL, sequence (P48506 whole entry): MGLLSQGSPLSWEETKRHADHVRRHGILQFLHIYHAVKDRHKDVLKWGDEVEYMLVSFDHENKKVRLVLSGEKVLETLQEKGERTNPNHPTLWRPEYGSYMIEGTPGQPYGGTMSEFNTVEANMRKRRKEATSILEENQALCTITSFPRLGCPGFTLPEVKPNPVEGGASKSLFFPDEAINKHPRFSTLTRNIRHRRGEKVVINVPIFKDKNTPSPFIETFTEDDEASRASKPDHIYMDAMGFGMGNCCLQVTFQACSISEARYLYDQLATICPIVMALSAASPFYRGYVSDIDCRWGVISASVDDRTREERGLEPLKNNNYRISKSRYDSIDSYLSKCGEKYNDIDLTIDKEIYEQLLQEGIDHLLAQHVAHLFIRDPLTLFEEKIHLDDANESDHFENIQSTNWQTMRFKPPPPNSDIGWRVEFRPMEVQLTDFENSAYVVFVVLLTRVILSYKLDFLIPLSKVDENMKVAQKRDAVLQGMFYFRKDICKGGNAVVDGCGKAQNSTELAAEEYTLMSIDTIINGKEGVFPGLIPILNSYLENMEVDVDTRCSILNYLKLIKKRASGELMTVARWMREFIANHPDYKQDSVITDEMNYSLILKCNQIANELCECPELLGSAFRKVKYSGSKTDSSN

N=S(=O)(CC[C@H](N)C(=O)O)CCC(O)(c1ccc(-n2cccn2)cc1)C(F)(F)F (stereo partly drawn) [Compound 426, (2S)-4-(3-(4-(1H-pyrazol-1-yl)phenyl)-4,4,4-trifluoro-3-hydroxybutylsulfonimidoyl)-2-aminobutanoic acid]
IC50 (human recombinant GCL): 20 to 2000 µM
EC50 (RKN cells): ≥ 1000 µM

N[C@@H](CCS(=O)(=O)CCC(O)(c1ccc(-c2ccc(Cl)cc2Cl)cc1)C(F)(F)F)C(=O)O (stereo partly drawn) [Compound 427, (2S)-2-amino-4-((3-(2′, 4′-dichloro-[1, 1′-biphenyl]-4-yl)-4,4,4-trifluoro-3-hydroxybutyl)sulfonyl) butanoic acid]
IC50 (human recombinant GCL): 20 to 2000 µM
EC50 (RKN cells): ≥ 1000 µM

N=S(=O)(CC[C@H](N)C(=O)O)CCC(O)(c1ccc(-c2ccc(Cl)cc2Cl)cc1)C(F)(F)F (some centres unmarked) [Compound 428]
IC50 (human recombinant GCL): ≤ 20 µM
EC50 (RKN cells): < 1000 µM

N=S(=O)(CC[C@H](N)C(=O)O)CCC(O)(c1ccc(-c2ccccc2O)cc1)C(F)(F)F (some centres unmarked) [Compound 434]
IC50 (human recombinant GCL): ≤ 20 µM
EC50 (RKN cells): < 1000 µM

Cc1ccc(-c2ccc(C(O)(CCS(=N)(=O)CC[C@H](N)C(=O)O)C(F)(F)F)cc2)c(C)c1 (some centres unmarked) [Compound 438]
IC50 (human recombinant GCL): ≤ 20 µM
EC50 (RKN cells): < 1000 µM

N=S(=O)(CC[C@H](N)C(=O)O)CCC(O)(c1ccc(-c2ccc(C(F)(F)F)cc2C(F)(F)F)cc1)C(F)(F)F (some centres unmarked) [Compound 439]
IC50 (human recombinant GCL): ≤ 20 µM
EC50 (RKN cells): < 1000 µM

COc1cc(OC(F)(F)F)ccc1-c1ccc(C(O)(CCS(=N)(=O)CC[C@H](N)C(=O)O)C(F)(F)F)cc1 (some centres unmarked) [Compound 440]
IC50 (human recombinant GCL): ≤ 20 µM
EC50 (RKN cells): < 1000 µM

N=S(=O)(CC[C@H](N)C(=O)O)CCC(O)(c1ccc(-c2ccc(C(F)(F)F)cc2Cl)cc1)C(F)(F)F (some centres unmarked) [Compound 441]
IC50 (human recombinant GCL): 20 to 2000 µM
EC50 (RKN cells): < 1000 µM

CS(=O)(=O)c1ccc(-c2ccc(C(O)(CCS(=N)(=O)CC[C@H](N)C(=O)O)C(F)(F)F)cc2)c(Cl)c1 (some centres unmarked) [Compound 442]
IC50 (human recombinant GCL): ≤ 20 µM
EC50 (RKN cells): ≥ 1000 µM

N=S(=O)(CC[C@H](N)C(=O)O)CCC(O)(c1ccc(-c2cccc3ccccc23)cc1)C(F)(F)F (some centres unmarked) [Compound 444]
IC50 (human recombinant GCL): ≤ 20 µM
EC50 (RKN cells): < 1000 µM

CC(C)(C)c1nnc(-c2ccc(C(O)(CCS(=N)(=O)CC[C@H](N)C(=O)O)C(F)(F)F)cc2)o1 (some centres unmarked) [Compound 445]
IC50 (human recombinant GCL): 20 to 2000 µM
EC50 (RKN cells): ≥ 1000 µM

N=S(=O)(CC[C@H](N)C(=O)O)CCC(O)(c1ccc(NC(=O)c2ccsc2)cc1)C(F)(F)F (some centres unmarked) [Compound 446]
IC50 (human recombinant GCL): ≤ 20 µM
EC50 (RKN cells): < 1000 µM

Cc1cc(-c2ccc(C(O)(CCS(=N)(=O)CC[C@H](N)C(=O)O)C(F)(F)F)cc2)c(C)o1 (some centres unmarked) [Compound 447]
IC50 (human recombinant GCL): ≤ 20 µM
EC50 (RKN cells): ≥ 1000 µM

Cc1noc(C)c1-c1ccc(C(O)(CCS(=N)(=O)CC[C@H](N)C(=O)O)C(F)(F)F)cc1 (some centres unmarked) [Compound 448]
IC50 (human recombinant GCL): ≤ 20 µM
EC50 (RKN cells): ≥ 1000 µM

N=S(=O)(CC[C@H](N)C(=O)O)CCC(O)(c1ccc(-c2ccc(Cl)cc2Cl)cc1OC(F)(F)F)C(F)(F)F (some centres unmarked) [Compound 449]
IC50 (human recombinant GCL): ≤ 20 µM
EC50 (RKN cells): ≥ 1000 µM

N=S(=O)(CC[C@H](N)C(=O)O)CCC(O)(c1ccc(-c2ccc(Cl)cc2Cl)cc1F)C(F)(F)F (some centres unmarked) [Compound 450]
IC50 (human recombinant GCL): ≤ 20 µM
EC50 (RKN cells): < 1000 µM

CCOc1cccc(-c2ccc(C(O)(CCS(=N)(=O)CC[C@H](N)C(=O)O)C(F)(F)F)cc2)c1 (some centres unmarked) [Compound 451]
IC50 (human recombinant GCL): ≤ 20 µM
EC50 (RKN cells): < 1000 µM

Cc1ccc(-c2ccc(C(O)(CCS(=N)(=O)CC[C@H](N)C(=O)O)C(F)(F)F)cc2C#N)cc1 (some centres unmarked) [Compound 452]
IC50 (human recombinant GCL): ≤ 20 µM
EC50 (RKN cells): ≥ 1000 µM

N=S(=O)(CC[C@H](N)C(=O)O)CCC(O)(c1ccc(-c2ccc(O)c(F)c2)cc1)C(F)(F)F (some centres unmarked) [Compound 453]
IC50 (human recombinant GCL): ≤ 20 µM
EC50 (RKN cells): ≥ 1000 µM

N#Cc1cc(-c2ccc(C(O)(CCS(=N)(=O)CC[C@H](N)C(=O)O)C(F)(F)F)cc2)ccc1O (some centres unmarked) [Compound 454]
IC50 (human recombinant GCL): ≤ 20 µM
EC50 (RKN cells): ≥ 1000 µM

Cc1cc(C(O)(CCS(=N)(=O)CC[C@H](N)C(=O)O)C(F)(F)F)ccc1-c1ccc(O)c(F)c1 (some centres unmarked) [Compound 455]
IC50 (human recombinant GCL): ≤ 20 µM
EC50 (RKN cells): ≥ 1000 µM

CC(C)(C)c1cc(-c2ccc(C(O)(CCS(=N)(=O)CC[C@H](N)C(=O)O)C(F)(F)F)cc2)ccc1O (some centres unmarked) [Compound 456]
IC50 (human recombinant GCL): ≤ 20 µM
EC50 (RKN cells): ≥ 1000 µM

N=S(=O)(CC[C@H](N)C(=O)O)CCC(O)(c1ccc(Cc2ccc(Cl)cc2Cl)cc1)C(F)(F)F (some centres unmarked) [Compound 457]
IC50 (human recombinant GCL): ≤ 20 µM
EC50 (RKN cells): ≥ 1000 µM

N=S(=O)(CC[C@H](N)C(=O)O)CCC(O)(c1ccc(-c2ccc(OC(F)(F)F)cc2O)cc1)C(F)(F)F (some centres unmarked) [Compound 458]
IC50 (human recombinant GCL): ≤ 20 µM
EC50 (RKN cells): < 1000 µM

N=S(=O)(CC[C@H](N)C(=O)O)CCC(O)(c1ccc(-c2ccccc2)cn1)C(F)(F)F (stereo partly drawn) [Compound 459, (2S)-2-amino-4-(4,4,4-trifluoro-3-hydroxy-3-(5-phenylpyridin-2-yl)butylsulfonimidoyl)butanoic acid]
IC50 (human recombinant GCL): ≤ 20 µM
EC50 (RKN cells): < 1000 µM

N[C@@H](CCS(=O)(=O)CCC(O)(c1ccc(-c2ccc(Cl)cc2Cl)cn1)C(F)(F)F)C(=O)O (stereo partly drawn) [Compound 460, (2S)-2-amino-4-[3-[5-(2,4-dichlorophenyl)-2-pyridyl]-4,4,4-trifluoro-3-hydroxy-butyl]sulfonyl-butanoic acid]
IC50 (human recombinant GCL): ≤ 20 µM
EC50 (RKN cells): < 1000 µM

N=S(=O)(CC[C@H](N)C(=O)O)CCC(O)(c1ccc(C2CCCC2)cn1)C(F)(F)F (stereo partly drawn) [Compound 461, (2S)-2-amino-4-(3-(5-cyclopentylpyridin-2-yl)-4,4,4-trifluoro-3-hydroxybutylsulfonimidoyl)butanoic acid]
IC50 (human recombinant GCL): ≤ 20 µM
EC50 (RKN cells): < 1000 µM

N=S(=O)(CC[C@H](N)C(=O)O)CCC(O)(c1ccc(-c2ccc(Cl)cc2Cl)cn1)C(F)(F)F (some centres unmarked) [Compound 463]
IC50 (human recombinant GCL): ≤ 20 µM
EC50 (RKN cells): < 1000 µM

N[C@@H](CCSCCC(O)(c1ncc(-c2ccc(Cl)cc2Cl)cn1)C(F)(F)F)C(=O)O (some centres unmarked) [Compound 469]
IC50 (human recombinant GCL): 20 to 2000 µM
EC50 (RKN cells): ≥ 1000 µM

Cc1cc(F)ccc1-c1cnc(C(O)(CCS(=N)(=O)CC[C@H](N)C(=O)O)C(F)(F)F)nc1 (some centres unmarked) [Compound 473]
IC50 (human recombinant GCL): 20 to 2000 µM
EC50 (RKN cells): < 1000 µM

N=S(=O)(CC[C@H](N)C(=O)O)CCC(O)(c1ccc(C2CC2)cn1)C(F)(F)F (some centres unmarked) [Compound 475]
IC50 (human recombinant GCL): 20 to 2000 µM
EC50 (RKN cells): ≥ 1000 µM

N=S(=O)(CC[C@H](N)C(=O)O)CCC(O)(c1ccc(-c2ccc(F)cc2F)cn1)C(F)(F)F (some centres unmarked) [Compound 477]
IC50 (human recombinant GCL): ≤ 20 µM
EC50 (RKN cells): < 1000 µM

Cc1cc(Cl)ccc1-c1ccc(C(O)(CCS(=N)(=O)CC[C@H](N)C(=O)O)C(F)(F)F)nc1 (some centres unmarked) [Compound 478]
IC50 (human recombinant GCL): ≤ 20 µM
EC50 (RKN cells): < 1000 µM

Cc1cc(F)ccc1-c1ccc(C(O)(CCS(=N)(=O)CC[C@H](N)C(=O)O)C(F)(F)F)nc1 (some centres unmarked) [Compound 479]
IC50 (human recombinant GCL): ≤ 20 µM
EC50 (RKN cells): < 1000 µM

N=S(=O)(CC[C@H](N)C(=O)O)CCC(O)(c1ccc(-c2cnco2)cn1)C(F)(F)F (some centres unmarked) [Compound 480]
IC50 (human recombinant GCL): 20 to 2000 µM
EC50 (RKN cells): ≥ 1000 µM

CCCCS(=N)(=O)CC[C@H](N)C(=O)OCC (some centres unmarked) [Compound 482]
IC50 (human recombinant GCL): 20 to 2000 µM
EC50 (RKN cells): ≥ 1000 µM

CCCCS(=N)(=O)CC[C@H](N)C(=O)OC(C)(C)C (some centres unmarked) [Compound 483]
IC50 (human recombinant GCL): 20 to 2000 µM
EC50 (RKN cells): ≥ 1000 µM

CCC(C)(C)OC(=O)[C@@H](N)CCS(=N)(=O)CCCC(F)(F)F (some centres unmarked) [Compound 484]
IC50 (human recombinant GCL): 20 to 2000 µM
EC50 (RKN cells): < 1000 µM

CCCCOC(=O)[C@@H](N)CCS(=N)(=O)CCC(O)(c1ccc(-c2ccc(Cl)cc2Cl)cc1)C(F)(F)F (some centres unmarked) [Compound 485]
IC50 (human recombinant GCL): 20 to 2000 µM
EC50 (RKN cells): < 1000 µM

CCOC(=O)[C@@H](N)CC[S@@](=N)(=O)CC[C@@H](O)C(F)(F)F [Compound 486, ethyl (S)-2-amino-4-((R,3R)-4,4,4-trifluoro-3-hydroxybutylsulfonimidoyl)butanoate]
IC50 (human recombinant GCL): 20 to 2000 µM
EC50 (RKN cells): < 1000 µM

CCOC(=O)[C@@H](N)CC[S@@](=N)(=O)CC[C@@](C)(O)C(F)(F)F [Compound 487, ethyl (S)-2-amino-4-((R,3R)-4,4,4-trifluoro-3-hydroxy-3-methylbutylsulfonimidoyl)butanoate]
IC50 (human recombinant GCL): 20 to 2000 µM
EC50 (RKN cells): < 1000 µM

CCOC(=O)[C@@H](N)CC[S@@](=N)(=O)CC[C@](O)(c1ccccc1)C(F)(F)F [Compound 488, ethyl (S)-2-amino-4-((R,3S)-4,4,4-trifluoro-3-hydroxy-3-phenylbutylsulfonimidoyl)butanoate]
IC50 (human recombinant GCL): 20 to 2000 µM
EC50 (RKN cells): < 1000 µM

CC(C)(C)OC(=O)[C@@H](N)CC[S@@](=N)(=O)CC[C@H](O)C(F)(F)F [Compound 489, tert-butyl (S)-2-amino-4-((R,3S)-4,4,4-trifluoro-3-hydroxybutylsulfonimidoyl)butanoate]
IC50 (human recombinant GCL): > 2000 µM
EC50 (RKN cells): ≥ 1000 µM
